This test concerns the target AhR (Homo sapiens (Human), UniProt P35869). The experiment in a line: ethoxyresorufin-O-deethylase (EROD) assay, AhR activation in HepG2 cells. Type of test: cell-based. The protocol: The human Hep G2 cell line from the Small Molecule Screening and Synthesis Facility (UWCCC, Madison, Wis.) and was maintained in DMEM medium supplemented with 10% FBS. Cells were incubated at 37° C. in a humidified atmosphere supplemented with 5% CO2.
Preparation of cells: Cells were cleaved from T75 flasks with 0.05% trypsin. The cells were then collected by spinning at 1 g for 4 min. Excess media containing trypsin was removed from the pellet, which was then re-suspended in growth media. The cells were then counted using a hemocytometer. Cells were plated in sterile 96-well clear bottom black culture plates at a density of 20,000 cells per well in 0.1 mL of media. The cells were then incubated for 24 h at 37° C. in a humidified atmosphere supplemented with 5% CO2.
The ethoxyresorufin-O-deethylase (EROD) assay was performed on cell cultures of human Hep G2 cells. Briefly, 24 h after plating, cells in 96-well plates were treated with AhR agonists and allowed to incubate for 24 h. Each well was then rinsed with 200 uL of PBS buffer twice. To each well was then added 100 uL of 150 nM solution of 7-ethoxyresurufin and allowed to incubate for 2 h. Fluorescence measurements were obtained with a Safire II micro plate reader with excitation at 520 nm with a 25 nm bandwidth and emission at 595 nm with a 20 nm bandwidth.
The bioactivity of malassezin analogs was then investigated. The well-documented ethoxyresorufin-O-deethylase (EROD) assay was used to determine the EC50 values of the compounds towards AhR activation in HepG2 cells. Donato, M. T.; Gomezlechon, M. J.; Castell, J. V. Anal. Biochem. 1993, 213, 29; van Tonder, J. J., University of Pretoria Z.A., Thesis, 2011. This assay measures the induction of cytochrome P450-1A1 (CYP1A1), which is a major outcome of AhR activation. Whyte, J. J.; Jung, R. E.; Schmitt, C. J.; Tillitt, D. E. Crit. Rev. Toxicol. 2000, 30, 347. CYP1A1 selectively converts 7-ethoxyresorufin to the fluorescent product resorufin.
Chain of AhR (P35869 11-848): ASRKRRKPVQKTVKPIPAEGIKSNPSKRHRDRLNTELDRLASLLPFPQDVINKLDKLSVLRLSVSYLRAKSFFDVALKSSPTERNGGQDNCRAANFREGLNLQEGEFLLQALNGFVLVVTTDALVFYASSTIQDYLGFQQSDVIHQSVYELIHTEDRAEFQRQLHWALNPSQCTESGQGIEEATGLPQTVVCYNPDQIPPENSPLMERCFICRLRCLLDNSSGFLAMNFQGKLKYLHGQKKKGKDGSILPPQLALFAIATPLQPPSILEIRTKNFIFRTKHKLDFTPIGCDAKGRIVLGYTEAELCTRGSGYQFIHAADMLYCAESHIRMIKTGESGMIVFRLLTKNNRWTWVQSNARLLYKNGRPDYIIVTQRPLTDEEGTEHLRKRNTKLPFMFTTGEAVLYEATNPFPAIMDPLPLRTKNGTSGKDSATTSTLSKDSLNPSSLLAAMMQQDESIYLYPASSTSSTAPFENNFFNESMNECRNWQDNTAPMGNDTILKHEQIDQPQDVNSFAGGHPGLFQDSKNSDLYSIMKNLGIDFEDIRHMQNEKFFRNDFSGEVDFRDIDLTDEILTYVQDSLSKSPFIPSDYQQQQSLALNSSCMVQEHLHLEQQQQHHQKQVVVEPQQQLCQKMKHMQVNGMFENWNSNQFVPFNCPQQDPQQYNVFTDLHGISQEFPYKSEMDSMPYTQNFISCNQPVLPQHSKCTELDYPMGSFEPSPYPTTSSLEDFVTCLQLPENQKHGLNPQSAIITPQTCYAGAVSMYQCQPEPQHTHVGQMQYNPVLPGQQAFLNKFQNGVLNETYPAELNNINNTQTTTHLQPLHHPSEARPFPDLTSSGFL
For the compound `O=Cc1c(Cc2c[nH]c3ccc(Cl)cc23)[nH]c2ccccc12` [Compound 11a], the “AhR potency (EC50) compared with malassezin, the positive control” value was “more potent than the positive control”.
As for `O=Cc1c(Cc2c[nH]c3c(Cl)cccc23)[nH]c2ccccc12` [Compound 11b], the entry is “slightly weaker agonist”; as for `COc1ccc2[nH]cc(Cc3[nH]c4ccccc4c3C=O)c2c1` [Compound 11c], “behaved similarly to malassezin”; as for `Cn1cc(Cc2[nH]c3ccccc3c2C=O)c2ccccc21` [Compound 11d], “about five times lower than that of malassezin”.

The values are drawn from patent publication US10730833B2, “Synthesis of diindolylmethanes and indolo[3,2-b]carbazoles, compounds formed thereby, and pharmaceutical compositions containing them” (Wisconsin Alumni Research Foundation, priority 2014, dated 2020).
